Patent US20250129070A1, “BIFUNCTIONAL ANDROGEN RECEPTOR COMPOUNDS” (priority 2023, published 2025)
pEC50, pIC50: −log10 of the molar value.

Experiments:
VCaP cells = assay: VCaP growth inhibition assay; type: cell-based; conditions: 30 pM R1881, 9 days, CTG
Method in brief: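 Growth read by CTG luminescence after 9-day exposure to compound (final 100 nM–10 fM, 1:5 steps) plus 30 pM R1881, in phenol red-free DMEM with 5% CSS. Cells pre-incubated 72 h before dosing; IC50 by nonlinear 4-parameter regression.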

AR / CBP ternary complex = assay: Ternary complex formation assay (sandwich ELISA, AR capture / CBP detection) in VCaP cell lysates; type: cell-based; conditions: 1.5 hours treatment, sandwich ELISA (AR capture, CBP or p300 detection)
Method in brief: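 Anti-AR (AR 441)-coated plates capture AR from lysates of VCaP cells grown ≥3 days at 50K/well in 5% charcoal-stripped FBS, dosed with bifunctional for 1.5 h and lysed 30 min at 4 °C. Co-captured CBP/p300 is probed with rabbit mAb and HRP anti-rabbit, then QuantaRed fluorescence (570/585) is read at 0, 5 and 15 min.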

| Structure (SMILES) | pIC50 (VCaP cells) | pEC50 (AR / CBP ternary complex) |
| --- | --- | --- |
| COc1cc(OC2C(C)(C)C(NC(=O)c3ccc(C#CC4CC(N5CCC(n6nc(N7CCCc8cc(-c9cnn(C)c9)c(C(F)F)cc87)c7c6CCN(C(C)=O)C7)CC5)C4)cc3)C2(C)C)ccc1C#N (stereo not drawn) [Compound 294, 4-[2-[3-[4-[5-acetyl-3-[7-(difluoromethyl)-6-(1-methylpyrazol-4-yl)-3,4-dihydro-2H-quinolin-1-yl]-6,7-dihydro-4H-pyrazolo[4,3-c]pyridin-1-yl]-1-piperidyl]cyclobutyl]ethynyl]-N-[3-(4-cyano-3-methoxy-phenoxy)-2,2,4,4-tetramethyl-cyclobutyl]benzamide] | 9.00 to 10.00 | > 9.00 |
| CC(=O)N1CCc2c(c(N3CCCc4cc(-c5cnn(C)c5)c(C(F)F)cc43)nn2CCCN(C)c2ncc(C(=O)NC3C(C)(C)C(Oc4ccc(C#N)c(Cl)c4)C3(C)C)cn2)C1 (stereo not drawn) [Compound 44, 2-[3-[5-acetyl-3-[7-(difluoromethyl)-6-(1-methylpyrazol-4-yl)-3,4-dihydro-2H-quinolin-1-yl]-6,7-dihydro-4H-pyrazolo[4,3-c]pyridin-1-yl]propyl-methyl-amino]-N-[3-(3-chloro-4-cyano-phenoxy)-2,2,4,4-tetramethyl-cyclobutyl]pyrimidine-5-carboxamide] | < 7.00 | < 7.00 |
| CC(=O)N1CCc2c(c(N3CCCc4cc(-c5cnn(C)c5)c(C)cc43)nn2C2CCN(CC3CCN(c4ncc(C(=O)NC5C(C)(C)C(Oc6ccc(C#N)c(C)c6)C5(C)C)cn4)CC3(C)C)CC2)C1 (stereo not drawn) [Compound 466, 2-[4-[[4-[5-acetyl-3-[7-methyl-6-(1-methylpyrazol-4-yl)-3,4-dihydro-2H-quinolin-1-yl]-6,7-dihydro-4H-pyrazolo[4,3-c]pyridin-1-yl]-1-piperidyl]methyl]-3,3-dimethyl-1-piperidyl]-N-[3-(4-cyano-3-methyl-phenoxy)-2,2,4,4-tetramethyl-cyclobutyl]pyrimidine-5-carboxamide] | 9.00 to 10.00 | > 9.00 |
| CC(=O)N1CCc2c(c(N3CCCc4cc(-c5cnn(C)c5)c(C(F)F)cc43)nn2CC2CCN(c3ncc(C(=O)NC4C(C)(C)C(Oc5ccc(C#N)c(Cl)c5)C4(C)C)cn3)CC2)C1 (stereo not drawn) [Compound 53, 2-[4-[[5-acetyl-3-[7-(difluoromethyl)-6-(1-methylpyrazol-4-yl)-3,4-dihydro-2H-quinolin-1-yl]-6,7-dihydro-4H-pyrazolo[4,3-c]pyridin-1-yl]methyl]-1-piperidyl]-N-[3-(3-chloro-4-cyano-phenoxy)-2,2,4,4-tetramethyl-cyclobutyl]pyrimidine-5-carboxamide] | < 7.00 | > 9.00 |
| COc1cc(OC2C(C)(C)C(NC(=O)c3ccc(N4CCC(N5CCC(n6nc(N7CCCc8cc(-c9cnn(C)c9)c(C(F)F)cc87)c7c6CCN(C(C)=O)C7)CC5)CC4)cc3)C2(C)C)ccc1C#N (stereo not drawn) [Compound 277, 4-[4-[4-[5-acetyl-3-[7-(difluoromethyl)-6-(1-methylpyrazol-4-yl)-3,4-dihydro-2H-quinolin-1-yl]-6,7-dihydro-4H-pyrazolo[4,3-c]pyridin-1-yl]-1-piperidyl]-1-piperidyl]-N-[3-(4-cyano-3-methoxy-phenoxy)-2,2,4,4-tetramethyl-cyclobutyl]benzamide] | ≥ 10.00 | > 9.00 |
| COc1cc(OC2C(C)(C)C(NC(=O)c3ccc(N4CCC(CCc5ccc(-c6cc7c(cn6)N(c6nn(C8CCOCC8)c8c6CN(C(C)=O)CC8)CCC7)cn5)CC4)cc3)C2(C)C)ccc1C#N (stereo not drawn) [Compound 246, 4-[4-[2-[5-[1-(5-acetyl-1-tetrahydropyran-4-yl-6,7-dihydro-4H-pyrazolo[4,3-c]pyridin-3-yl)-3,4-dihydro-2H-1,7-naphthyridin-6-yl]-2-pyridyl]ethyl]-1-piperidyl]-N-[3-(4-cyano-3-methoxy-phenoxy)-2,2,4,4-tetramethyl-cyclobutyl]benzamide] | 9.00 to 10.00 | > 9.00 |
